According to patent publication US20160228452A1, “TREATMENT OF METABOLIC DISEASES BY INHIBTION OF HTR2A OR HTR3” (Korea Advanced Institute of Science and Technology, priority 2014, published 2016):
Entries after “also recorded” stand apart in the source; their conditions may differ.

Tests used:
BAT = assay: 18F-FDG PET/CT glucose utilization of BAT; assay type: in vivo; conditions: PCPA-treated HFD-fed mice vs HFD-fed control
Experimental: (§1) To measure the metabolic rate, the mice were housed individually in an eight-chamber, open-circuit Oxymax/CLAMS (Columbus Instruments Comprehensive Lab Animal Monitoring System) system as previously described^33. Each mouse was assessed for 72 h in the fed state to determine their metabolic rates. PET imaging was performed using a microPET R4 scanner (Concorde Microsystems, Siemens) as previously described^34.

[1] = intraventricular injection, reference 19; cited from earlier work
[2] = Glucose tolerance test and insulin tolerance test; assay type: in vivo, mice; conditions: PCPA-treated HFD-fed mice vs HFD-fed control
Experimental: For the glucose tolerance tests, the mice were administered 2 g/kg D-glucose in PBS after overnight fasting. For the insulin tolerance tests, the mice were intraperitoneally injected with insulin (0.75 U/kg) after being fasted for 4 h. The blood glucose levels in blood samples obtained from tail veins 0, 15, 30, 45, 60, 90 and 120 min after injection were measured using a Gluco DR Plus glucometer (Allmedicus).

[3] = High-fat-diet-induced obesity in mice: growth curves, body weight and eWAT mass; assay type: in vivo; conditions: PCPA 300 mg/kg daily i.p., 10 weeks, HFD-fed mice vs HFD-fed control
From the text: The generation of Tph^flox/flox mice, Adipoq-cre mice, and aP2-CreERT2 mice has previously been reported^17,30,31. C57BL/6J mice, Htr3a-targeted KO mice (B6.129X1-Htr3a^tm1jul/J, Htr3a KO) and leptin-deficient ob/ob mice (B6.V-Lep^ob/J) were purchased from the Jackson Laboratory (Bar Harbor, Me., USA). To create the adipose tissue-specific Tph1 KO mice, Tph1^flox/flox mice were crossed with Adipoq-Cre mice (Tph1 FKO mice) and aP2-CreERT2 mice (Tph1 AFKO mice). The mice were housed in climate-controlled, specific pathogen-free (SPF) barrier facilities under a 12-h light-dark cycle, and chow and water were provided ad libitum. The Institutional Animal Care and Use Committee at the Korea Advanced Institute of Science and Technology approved the experimental protocols for this study. Htr3a KO mice and Tph1^flox/flox mice were backcrossed with C57BL/6J mice for more than 10 generations. Cre-recombination of 6-week-old Tph1 AFKO mice was induced by intraperitoneal (IP) injection of 5 doses of 2 mg of tamoxifen (Sigma) for 1 week. We fed male mice (aged 8˜10 weeks) either on SCD (standard chow diet; 12% fat calories, Purina Laboratory Rodent Diets 38057) or HFD (60% fat calories, Research Diets D12492). PBS or 300 mg/kg PCPA was administered as a daily intraperitoneal injection. LP-533401 was dissolved in PEG-400 and 5% dextrose (40:60 ratio). Vehicle or 30 mg/kg LP-533401 was administered daily with a feeding needle. We randomly divided C57BL/6J mice into 2-4 groups. For transgenic mice, we compared data between KO mice and their WT littermates. No blinding was done.

[4] = system: genes involved in lipid metabolism and thermogenesis; assay: Real-time RT-PCR of mouse adipose tissues; assay type: in vivo, mice
Experimental: Total RNA was extracted from the mouse tissues or cell lines using TRIzol reagent (Invitrogen) according to the manufacturer's protocol. After TURBO DNase (Invitrogen) treatment, 2 μg of total RNA was used to generate complementary DNA with Superscript III reverse transcriptase (Invitrogen). To analyze gene expression, real-time PCR was performed with a ViiA 7 Real-Time PCR system (Applied Biosystems) and the Power SYBR Green PCR master mix (Applied Biosystems). Relative quantification was based on the ddCt method, and ActB was used as an endogenous control (internal control).

[5] = Metabolic analysis by indirect calorimetry (Oxymax/CLAMS); assay type: in vivo, mice
Experimental: as §1

[6] = Blood chemistry analysis (serum cholesterol, LDL cholesterol, FFA, leptin by ELISA); assay type: in vivo; conditions: PCPA 300 mg/kg, 6 weeks, HFD-fed mice vs HFD-fed control
Experimental: Tissue serotonin was extracted by homogenization in extraction buffer containing 0.02% ascorbic acid in 0.1 M perchloric acid followed by centrifugation. The serotonin levels in the supernatants were measured via the liquid chromatography-mass spectrometry method. Serum leptin (Enzo Life Science, Farmingdale, N.Y., USA), LDL-cholesterol (Waco), and FFA (Biovision, Mountain View, Calif., USA) were measured using enzyme-linked immunosorbent assay (ELISA) kits.

eWAT, iWAT and BAT = assay: Histological analysis of adipose tissues (H&E, Ucp1/Plin1 immunohistochemistry, TEM); assay type: in vivo, mice
Experimental: Inguinal, epididymal and interscapular adipose tissues were harvested, fixed in 4% (w/v) paraformaldehyde in PBS and embedded in paraffin. Then, 5-μm-thick tissue sections were deparaffinized, rehydrated and used for hematoxylin and eosin (H&E) staining, immunohistochemistry and immunofluorescence. For antigen retrieval, the slides were submerged in 10 mM sodium citrate (pH 6.0) and heated to 95° C. for 20 minutes. Visualization of Ucp1 and Plin1 was performed using a VECTASTAIN ABC Kit (PK-4001, Vector Laboratories, Burlingame, Calif., USA) according to the manufacturer's instructions. Briefly, the slides were incubated with BLOXALL Blocking solution (SP-6000, Vector Laboratories) followed by incubation with 2% normal goat serum for 30 min at room temperature to block non-specific binding. Sections were incubated with primary antibody against Ucp1 (ab10983, Abcam) or Plin1 (ab3526, Abcam) for 1 h at room temperature followed by 30-min incubation with a species-specific, biotinylated secondary antibody. The slides were incubated with Vectastain ABC-AP reagent for 30 min and then incubated with […] substrate (DAB, SK-4100, Vector Laboratories) for visualization. The stains and antibodies used for the immunofluorescence staining included BODIPY (BODIPY®493/503, Invitrogen), anti-5HT (ab10385, Abcam) and DAPI (D9542, Sigma). Electron microscopy images of BAT were obtained by transmission electron microscopy (Tecnai Spirit TEM) as previously described^35. Briefly, the BAT was first fixed with 2.5% glutaraldehyde, and after fixation, ultra-thin sections were cut, stained with uranyl acetate and lead citrate and then examined under an electron microscope.

[7] = PCPA-treated vs control mice, HFD for 6 weeks

SMILES: N[C@@H](Cc1ccc(Cl)cc1)C(=O)O (racemic) [PCPA, p-chlorophenylalanine]
- glucose (18F-FDG) uptake into BAT (BAT): significantly increased glucose uptake
- appetite [1]: reduce appetite
- body weight [1]: increase body weight
- glucose tolerance ([2]; 2 g/kg glucose after overnight fasting): improved glucose tolerance
- insulin sensitivity / insulin resistance ([2]; insulin 0.75 U/kg after 4 h fasting): improved; also recorded: reduced insulin resistance
- body weight gain [3]: decreased weight gain; also recorded: reduction in body weight gain
- eWAT mass [3]: reduced eWAT mass; also recorded: decreased eWAT
- Dio2 mRNA level in BAT ([4]; PCPA 300 mg/kg, 6 weeks): highest increase
- thermogenic gene expression in BAT ([4]; PCPA 300 mg/kg, 6 weeks): increased thermogenic gene expression
- Dio2 mRNA level in iWAT ([4]; PCPA-treated mice fed an HFD): increased
- Ucp1 mRNA level in iWAT ([4]; PCPA-treated mice fed an HFD): increased
- expression of lipogenic (triglyceride storage) genes in eWAT ([4]; PCPA-treated vs control mice, both SCD and HFD): suppressed expression
- metabolic rates (metabolic cage data) on standard chow diet ([5]; PCPA 300 mg/kg for 6 weeks vs vehicle, SCD-fed mice): did not affect the metabolic rates; also recorded: no significant differences
- O2 consumption [5, 7]: increased
- carbon dioxide production (VCO2) [5, 7]: increased carbon dioxide production
- energy expenditure [5, 7]: increased energy expenditure
- heat production [5, 7]: increased
- blood level of LDL cholesterol [6]: decreased
- blood level of free fatty acid (FFA) [6]: decreased; also recorded: reduced
- blood level of leptin [6]: decreased; also recorded: reduced
- serum cholesterol [6]: reduced
- iWAT adipocyte size, HFD vs SCD within PCPA-treated mice (eWAT, iWAT and BAT; 18-week-old PCPA-treated mice, HFD for 10 weeks compared with PCPA-treated mice fed an SCD): decreased adipocyte size
- number and size of mitochondria in BAT (TEM) (eWAT, iWAT and BAT; HFD-fed mice with PCPA treatment for 6 weeks): increased size and number of mitochondria
- eWAT cellular structure / cell damage (Plin1 staining) (eWAT, iWAT and BAT; PCPA 300 mg/kg for 6 weeks, SCD or HFD): normal cellular structures; also recorded: No gross cell damage was observed
- browning of iWAT (Ucp1-expressing multilocular cells) (eWAT, iWAT and BAT; PCPA-treated mice): brown adipocyte-like multilocular cells that expressed Ucp1 were observed
- density of the cristae in BAT mitochondria (eWAT, iWAT and BAT; PCPA-treated mice): increased
- iWAT adipocyte size (eWAT, iWAT and BAT; PCPA-treated mice): decreased
- multilocular adipocytes in BAT (eWAT, iWAT and BAT; PCPA-treated mice, HFD): increased multilocular adipocytes
- BAT lipid droplet size (eWAT, iWAT and BAT; PCPA-treated vs control BAT, regardless of diet): decreased lipid droplet sizes
- eWAT adipocyte size (eWAT, iWAT and BAT; PCPA-treated vs control mice, SCD or HFD): decreased adipocyte size; also recorded: did not increase the adipocyte size
